# Results: paper PMC8433497, “DNA-encoded chemistry technology yields expedient access to SARS-CoV-2 M^pro inhibitors” (Proceedings of the National Academy of Sciences of the …, 2021)
# “Also recorded” adds a separate entry of the source. Where two headings read alike, the source gives them in different places.
# Legend:
# [1] = tested on: HepG2 cells; assay: HepG2 cell uptake assay; format: in vitro ADME; conditions: 10 μM, 2 h, 37 °C
# Method: (§1) The HepG2 cells maintained in DMEM (containing 1 g/L glucose, 10% fetal bovine serum [FBS], and 1% penicillin/streptomycin) were seeded in a 12-well plate (a final density of 5 × 10^5 per well) for cell uptake assay and 96-well plate for cytotoxicity assay (a final density of 5 × 10^4 per well). The plate was incubated at 37 °C for 24 h.
# The cells in 12-well plate were treated with CDD-1713 or CDD-1976 (final concentration: 10 μM). The plate was incubated at 37 °C for another 2 h. The medium in the plate was decanted and the cells were rinsed with 1 mL of 1× DPBS three times, then 0.5 mL of 0.25% trypsin was added to each well and incubated for 3.5 min (at 37 °C). One milliliter of complete medium was added to each well to quench the reaction. After spinning at 350 × g for 5 min, the cell pellet was reconstituted in MeOH/H2O (vol/vol 1/1) and CDD-1713 or CDD-1976 was extracted from 100 μL of the resulting mixture with 100 μL of ice-cold methanol. The mixtures were centrifuged at rcf 15,000 for 15 min. Three microliters of the supernatant was analyzed by UHPLC-Q Exactive Orbitrap MS (Thermo Fisher Scientific) equipped with a 50-mm × 4.6-mm column (XDB C-18; Agilent Technologies). The column temperature was set at 40 °C. Ultrapure nitrogen was applied as the sheath (45 arbitrary units), auxiliary (10 arbitrary units), sweep (1.0 arbitrary unit), and the collision gas. […]
# [2] = Metabolic stability in mouse liver microsomes; format: in vitro ADME
# Method: (§2) The samples were collected at specific time points, 0, 30, and 60 min, in duplicate. The reactions were terminated by adding an equivalent volume of ice-cold methanol and vortexed. […] Three microliters […] of the supernatant was analyzed by UHPLC-Q Exactive Orbitrap MS (Thermo Fisher Scientific) equipped with 50-mm × 4.6-mm column (XDB C-18; Agilent Technologies). The column temperature was maintained at 40 °C. The flow rate was at 0.3 mL/min with a 30% mobile phase (acetonitrile containing 0.1% formic acid). Q Exactive MS was operated in positive mode with electrospray ionization. Ultrapure nitrogen was applied as the sheath (45 arbitrary units), auxiliary (10 arbitrary units), sweep (1.0 arbitrary unit), and the collision gas. […] Mass Spectrometry (MS) data were acquired from 80 to 1,200 Da in profile mode.
# [3] = biological target: SARS-CoV-2 M^pro-His6 (Severe acute respiratory syndrome coronavirus 2, UniProt P0DTD1); assay: M^pro-His6 enzyme inhibition assay, fluorescent peptide reporter; format: biochemical
# [4] = tested on: SARS-CoV-2 main protease (M^pro); assay: Protein thermal shift stability assay (thermofluor); format: binding; conditions: 1.5 μM protease, various compound concentrations, SYPRO Orange
# Method: The dye SYPRO Orange (Thermo Fisher Scientific) was used to perform the protein thermal shift assay. The assay was set up on a 384-well Roche plate where the SARS-CoV-2 main protease at a concentration of 1.5 μM was incubated with the test compound at various concentrations and SYPRO Orange dye at 5× in a 10 μL reaction. The melting curve experiment and data analysis were run on a Roche Lightcycler 480 real-time PCR instrument.
# [5] = biological target: T1, renin (Homo sapiens, UniProt P00797); assay: Renin assay; format: biochemical; conditions: best off-target inhibition observed; read-out: estimated Kiapp, renin
# T1 construct: purchased BPS Bioscience 80211
# T1 sequence (P00797 67-406): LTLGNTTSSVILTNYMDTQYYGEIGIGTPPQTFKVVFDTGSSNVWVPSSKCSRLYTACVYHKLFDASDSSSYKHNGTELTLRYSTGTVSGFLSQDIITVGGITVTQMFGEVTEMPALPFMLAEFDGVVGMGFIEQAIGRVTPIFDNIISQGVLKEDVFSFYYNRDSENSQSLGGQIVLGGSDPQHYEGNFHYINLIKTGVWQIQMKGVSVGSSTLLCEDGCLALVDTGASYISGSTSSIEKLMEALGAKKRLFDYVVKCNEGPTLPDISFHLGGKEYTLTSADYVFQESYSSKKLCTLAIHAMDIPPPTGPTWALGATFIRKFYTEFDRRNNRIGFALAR
# Method: Renin assay: A kit from BPS Bioscience (80211) was used with adjustments to the manufacturer’s protocol as follows. The reaction was run at RT in black 96 half-area plates in a total reaction volume of 50 μL containing 0.01% Tween-20. Instead of measuring endpoints at 30 min the increase in fluorescence (Ex 490 nm, Em 520 nm) per second (RFU/s) was obtained from linear progress curves over 10 min. Fractional activities were calculated from reactions with no inhibitors. Aliskiren was used as a positive control.
# [6] = tested on: HepG2 cells; assay: HepG2 cytotoxicity assay (XTT); format: cell-based; conditions: 100 μM, 24 h
# Method: as §1
# (§3) The cells in 96-well plate were treated by CDD-1713 or CDD-1976 at the final concentrations of 0, 10, 20, 50, or 100 μM (n = 3 replicates per concentration level per drug). After 24-h incubation at 37 °C, the medium in the plate was decanted and 100 μL of Dulbecco’s modified Eagle’s medium (DMEM) (without phenol red) was added into each well. The cell variability was measured using XTT method. The absorbance at 475 nm was read with a Tecan M1000 pro machine, with a reference wavelength of 660 nm. The reading was normalized by vehicle with final 0.5% dimethyl sulfoxide (DMSO) for each drug.
# [7] = HepG2 cytotoxicity assay (XTT); format: cell-based; conditions: human, 100 µM group, XTT, normalized to DMSO, read-out: HepG2 cell viability
# Method: as §1, §3
# [8] = Plasma stability assay, human plasma; format: in vitro ADME; conditions: 10 µM, 37 °C, after 2-h incubation
# Method: (§4) Compound CDD-1713 and CDD-1976 were incubated in human and mouse plasma, respectively, at a concentration of 10 µM in duplicate (n = 2) at 37 °C. At time points of 0, 30, 60, and 120 min, 15 µL of sample were taken out and the reactions terminated by adding 75 µL of ice-cold methanol. The reaction mixtures were then vortexed for 30 s and centrifuged at rcf 15,000 for 15 min. Following centrifugation, 3 μL of the supernatant was analyzed using UHPLC-Q Exactive Orbitrap MS. The percentage of test compound remaining at the individual time points relative to the 0-min sample was then determined.
# [9] = Plasma stability assay, mouse plasma; format: in vitro ADME; conditions: 10 µM, 37 °C, after 2-h incubation
# Method: as §4
# [10] = Metabolic stability in human liver microsomes; format: in vitro ADME
# Method: as §2
# [11] = tested on: SARS-CoV-2 (USA_WA1/2020 isolate); assay: RTCA assay for in vitro inhibition of SARS-CoV-2 replication in VERO E6 cells; format: cell-based; conditions: live SARS-CoV-2, 75 h
structure (smiles),measurement,setting,value
COc1cc(-c2cccc3[nH]ncc23)cc(C=O)c1OCC(=O)N(C)C [CDD-1713],cell permeability in uptake assay of HepG2 cells,[1],moderate cell permeability
same,metabolic stability in mouse liver microsomes (in words),[2],metabolically labile
same,half-life at 2 μM,"[2]; 0.5 mg protein/ml, 2.0 uM compound, 1.0 mM NADPH, read-out: MLM t1/2",8.4 min
same,Ki,"[3]; 25 nM enzyme, 15 µM fluorescent peptide, Morrison equation, inactive = less than 90% inhibition at 25 µM, read-out: Ki against M^pro (Fig. 2; Fig. 2B M^pro-His-tag)",45 ± 3 nM
same,Ki,"[3]; Table S1, 25 nM enzyme, 15 µM fluorescent peptide, Morrison equation, SE from triplicates, read-out: Mpro-His Ki",45 ± 3 nM
same,Ki,[3]; read-out: Ki against M^pro (Fig. 2; Fig. 2B M^pro-His-tag),45 nM
same,stabilization of M^pro (temperature shift),[4],stabilized; also recorded: concentration-dependent stabilization
same,Ki,[5],53000 nM
same,cytotoxicity in HepG2 cells (in words),[6],no obvious cytotoxicity
same,"viability at 24 h, 100 µM",[7],> 80%
same,compound remained in human plasma,[8],80%
same,compound remained in mouse plasma,[9],80%
same,metabolic stability in human liver microsomes (in words),[10],metabolically labile
same,half-life at 2 μM,"[10]; 0.5 mg protein/ml, 2.0 uM compound, 1.0 mM NADPH, read-out: HLM t1/2",15.3 min
same,effect on SARS-CoV-2 induced cell death (in words),[11],reduced cell death in a dose-dependent manner
same,"IC50, SARS-CoV-2 induced cell death (normalized cell index, RTCA)",[11]; duplicates,5190 nM
